Laboratory results reported in the supplement of paper PMC5579334.

Columns and labels:
S462 = assay: relative IC50 (inflection point of fitted dose-response curve, CellTiter-Glo viability, 72 h; top asymptote may be below 50% inhibition); higher = less potent
In short: (§1)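 Viability was scored by CellTiter-Glo ATP luminescence, scaled from vehicle to positive-control wells, with duplicates averaged where present. The cells, MPNST lines and primary human Schwann cells at 750–1000 per well, sat 72 h at 37 °C, 5% CO2, in 384-well plates preprinted with each compound at five concentrations in 10-fold steps. Four-parameter logistic fits were run on the data. These fits give drug sensitivity score and relative IC50 censored at the top concentration, and percent inhibition is reported at the top concentration.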

YST-1 = assay: as above
In short: as §1

HSC2 [1] = assay: as above
In short: as §1

S1507-2 = assay: as above
In short: as §1

STS26T [2] = assay: as above
In short: as §1

HSC1 [3] = assay: as above
In short: as §1

HS-Sch-2 = assay: as above
In short: as §1

ST8814 [4] = assay: as above
In short: as §1

HS-PSS [5] = assay: as above
In short: as §1

HSC2 [6] = assay: relative IC50 (inflection point of fitted dose-response curve, CellTox-Green cytotoxicity, 72 h; top asymptote may be below 50%); higher = less potent
In short: (§2)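 MPNST cell lines and primary human Schwann cells were incubated 72 h at 37 °C in 384-well plates holding five 10-fold compound dilutions. CellTox-Green was added before seeding at a final 1:1000 dilution and reported fluorescence from DNA released by disrupted cells. Signals were scaled to vehicle and positive-control wells, and cultures failing plate quality control were dropped. Drug sensitivity score and relative IC50 come from four-parameter logistic fits, with IC50 censored at the top concentration.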

STS26T [7] = assay: as above
In short: as §2

HSC1 [8] = assay: as above
In short: as §2

ST8814 [9] = assay: as above
In short: as §2

HS-PSS [10] = assay: as above
In short: as §2

SMILES | relative IC50 (S462) [nM] | relative IC50 (YST-1) [nM] | relative IC50 (HSC2 [1]) [nM] | relative IC50 (S1507-2) [nM] | relative IC50 (STS26T [2]) [nM] | relative IC50 (HSC1 [3]) [nM] | relative IC50 (HS-Sch-2) [nM] | relative IC50 (ST8814 [4]) [nM] | relative IC50 (HS-PSS [5]) [nM] | relative IC50 (HSC2 [6]) [nM] | relative IC50 (STS26T [7]) [nM] | relative IC50 (HSC1 [8]) [nM] | relative IC50 (ST8814 [9]) [nM] | relative IC50 (HS-PSS [10]) [nM]
O=P1(N(CCCl)CCCl)NCCCO1 (centres undefined) [Cyclophosphamide] | > 40000 | > 40000 | > 40000 | > 40000 | > 40000 | > 40000 | > 40000 | > 40000 | > 40000 | > 40000 | > 40000 | > 40000 | > 40000 | > 40000
O=NN(CCCl)C(=O)NCCCl [Carmustine] | > 10000 | > 10000 | > 10000 | > 10000 | > 10000 | > 10000 | > 10000 | > 10000 | – | > 10000 | > 10000 | > 10000 | > 10000 | > 10000
CC(=O)c1c(C)c2cnc(Nc3ccc(N4CCNCC4)cn3)nc2n(C2CCCC2)c1=O [Palbociclib] | 855 | 1350 | 286 | 987 | 1340 | 268 | 1940 | 1740 | 1700 | > 10000 | > 10000 | > 10000 | > 10000 | > 10000
COc1cc2ncnc(Nc3ccc(F)c(Cl)c3)c2cc1OCCCN1CCOCC1 [Gefitinib] | 4160 | 987 | 2690 | 3600 | 3770 | 2940 | 1900 | 3560 | 1780 | > 10000 | 3930 | > 10000 | 2950 | > 10000
COc1cc([C@@H]2c3cc4c(cc3[C@@H](O[C@@H]3O[C@@H]5CO[C@@H](C)O[C@H]5[C@H](O)[C@H]3O)[C@H]3COC(=O)[C@H]23)OCO4)cc(OC)c1O [Etoposide] | 833 | 175 | 241 | 1490 | 1210 | 658 | 1120 | 1930 | 1300 | 1420 | 896 | 3130 | 3230 | –
O=C(CCCCCCC(=O)Nc1ccc([C@H]2O[C@@H](CSc3nc(-c4ccccc4)c(-c4ccccc4)o3)C[C@@H](c3ccc(CO)cc3)O2)cc1)NO [Tubacin] | 3160 | 2010 | 2970 | 3190 | 3310 | 3280 | 2800 | 2970 | 1470 | > 10000 | 3190 | > 10000 | 3070 | –
Cc1c2oc3c(C)ccc(C(=O)N[C@@H]4C(=O)N[C@H](C(C)C)C(=O)N5CCC[C@H]5C(=O)N(C)CC(=O)N(C)[C@@H](C(C)C)C(=O)O[C@@H]4C)c3nc-2c(C(=O)N[C@@H]2C(=O)N[C@H](C(C)C)C(=O)N3CCC[C@H]3C(=O)N(C)CC(=O)N(C)[C@@H](C(C)C)C(=O)O[C@@H]2C)c(N)c1=O [Dactinomycin] | 1.86 | 0.88 | 0.779 | 5.95 | 2.08 | 0.906 | 1.95 | 3.46 | 5.05 | 8.46 | 3.07 | 12.4 | 49.1 | 12
COc1cc2c(Oc3ccc(NC(=O)C4(C(=O)Nc5ccc(F)cc5)CC4)cc3F)ccnc2cc1OCCCN1CCOCC1 [Foretinib] | 257 | 275 | 256 | 138 | 209 | 238 | 378 | 142 | – | > 1000 | 311 | > 1000 | 288 | –
CO[C@@H](C(=O)N1Cc2[nH]nc(NC(=O)c3ccc(N4CCN(C)CC4)cc3)c2C1)c1ccccc1 [Danusertib] | 389 | 57.8 | 968 | 641 | 1230 | 759 | 529 | 1200 | 1270 | 2390 | 744 | 2690 | 1170 | 2630
O=C1c2c(O)ccc(O)c2C(=O)c2c(NCCNCCO)ccc(NCCNCCO)c21 [Mitoxantrone] | 213 | 56.6 | 89.1 | 244 | 366 | 164 | 87.4 | 292 | 194 | > 1000 | 380 | > 1000 | 384 | > 1000
CCc1cnn2c(NCc3ccc[n+]([O-])c3)cc(N3CCCC[C@H]3CCO)nc12 [Dinaciclib] | 6.5 | 7.48 | 13.6 | 25.9 | 12.7 | 21.6 | 8.55 | 29.5 | 10.1 | 43.9 | 8.71 | 84.2 | 36.4 | 7.72
CC(C)C[C@H](NC(=O)[C@@H](COC(C)(C)C)NC(=O)[C@H](Cc1ccc(O)cc1)NC(=O)[C@H](CO)NC(=O)[C@H](Cc1c[nH]c2ccccc12)NC(=O)[C@H](Cc1cnc[nH]1)NC(=O)[C@@H]1CCC(=O)N1)C(=O)N[C@@H](CCCNC(=N)N)C(=O)N1CCC[C@H]1C(=O)NNC(N)=O [Goserelin] | > 10000 | > 10000 | > 10000 | > 10000 | > 10000 | > 10000 | – | > 10000 | > 10000 | > 10000 | > 10000 | > 10000 | > 10000 | > 10000
CS(=O)(=O)N1CCN(Cc2cc3nc(-c4cccc5[nH]ncc45)nc(N4CCOCC4)c3s2)CC1 [Pictilisib] | 1150 | 445 | 1550 | 128 | 310 | 1210 | 1750 | 789 | 1110 | > 10000 | > 10000 | > 10000 | 2280 | > 10000
Cc1nc(Nc2ncc(C(=O)Nc3c(C)cccc3Cl)s2)cc(N2CCN(CCO)CC2)n1 [Dasatinib] | 41.3 | 16.8 | 81.7 | 53.8 | 25.8 | 48.7 | 84.9 | 43.9 | – | > 1000 | 52 | > 1000 | 29.4 | > 1000
CC(C)c1c(C(=O)Nc2ccccc2)c(-c2ccccc2)c(-c2ccc(F)cc2)n1CC[C@@H](O)C[C@@H](O)CC(=O)O [Atorvastatin] | 1280 | 2320 | 196 | 2500 | 2090 | 319 | 2210 | 2450 | 1680 | 234 | 3510 | 368 | 3270 | > 10000
CO[C@H](C(=O)[C@@H](O)[C@@H](C)O)[C@@H]1Cc2cc3cc(O[C@H]4C[C@@H](O[C@H]5C[C@@H](O)[C@H](O)[C@@H](C)O5)[C@@H](O)[C@@H](C)O4)c(C)c(O)c3c(O)c2C(=O)[C@H]1O[C@H]1C[C@@H](O[C@H]2C[C@@H](O[C@H]3C[C@](C)(O)[C@H](O)[C@@H](C)O3)[C@H](O)[C@@H](C)O2)[C@H](O)[C@@H](C)O1 [Plicamycin] | 85.2 | 564 | 52 | 102 | 47.5 | 45.6 | 865 | 51.4 | 1380 | 247 | 33.3 | 255 | > 10000 | 2410
CO[C@@]12[C@H](COC(N)=O)C3=C(C(=O)C(C)=C(N)C3=O)N1C[C@@H]1N[C@@H]12 [Mitomycin C] | 3690 | 2190 | 3650 | 3790 | 3590 | 3330 | 3950 | 3760 | – | 1060 | 2850 | 2870 | 3080 | > 10000
CNNCc1ccc(C(=O)NC(C)C)cc1 [Procarbazine] | > 10000 | > 10000 | > 10000 | > 10000 | > 10000 | > 10000 | > 10000 | > 10000 | > 10000 | > 10000 | > 10000 | > 10000 | > 10000 | > 10000
O=C(O)CCCCC(CCSCc1ccccc1)SCc1ccccc1 (centres undefined) [CPI-613] | > 10000 | – | > 10000 | > 10000 | > 10000 | > 10000 | > 10000 | > 10000 | – | > 10000 | > 10000 | > 10000 | > 10000 | > 10000
C[C@@H](C(=O)O)c1ccc(-c2ccccc2)c(F)c1 [Tarenflurbil] | > 10000 | > 10000 | > 10000 | > 10000 | > 10000 | > 10000 | > 10000 | > 10000 | > 10000 | > 10000 | > 10000 | > 10000 | > 10000 | > 10000
CO[C@H]1C[C@@H]2CC[C@@H](C)[C@@](O)(O2)C(=O)C(=O)N2CCCC[C@H]2C(=O)O[C@H]([C@H](C)C[C@@H]2CC[C@@H](OCCO)[C@H](OC)C2)CC(=O)[C@H](C)/C=C(\C)[C@@H](O)[C@@H](OC)C(=O)[C@H](C)C[C@H](C)/C=C/C=C/C=C/1C [Everolimus] | 0.537 | 5.94 | 0.239 | 1.46 | 0.14 | 0.12 | – | 0.32 | – | > 100 | > 100 | > 100 | > 100 | > 100
COc1cc(Nc2ncc3c(n2)-c2ccc(Cl)cc2C(c2c(F)cccc2OC)=NC3)ccc1C(=O)O [Alisertib] | 24.8 | 31.1 | 26.5 | 124 | 89.6 | 53.4 | 244 | 288 | 1560 | > 10000 | 40.4 | > 10000 | 265 | > 10000
CCOC(=O)CCNc1cc(N2CCc3ccccc3CC2)nc(-c2ccccn2)n1 [GSK-J4] | 3740 | 4300 | 4570 | 6510 | 5270 | 4680 | 4520 | 5900 | 6010 | 23700 | 14800 | 23700 | 15500 | 27200
CN(C)c1nc(N(C)C)nc(N(C)C)n1 [Altretamine] | > 10000 | > 10000 | > 10000 | > 10000 | > 10000 | > 10000 | > 10000 | > 10000 | > 10000 | > 10000 | > 10000 | > 10000 | > 10000 | > 10000
